# Reference: US8334316B2, “Substituted organosulfur compounds and methods of using thereof” (ACEA Biosciences, Inc., priority 2004, dated 2012)
# Assay: Acute toxicity, single intravenous injection, LD50 (Bliss method) in Kunming mice
# Assay type: in vivo
# Experimental: To evaluate the in vivo acute, intravenous toxicity of DBTS and ACEA100108 (a derivative of DBTS, see Table 33), the experiments were performed in non-tumor bearing, normal Kunming mice by monitoring the acute response of mice to a single dose of DBTS or ACEA100108 via intravenous injection (i.v.). The number of death for the treated mice was monitored and recorded. LD50 values for these compounds were calculated. Details of the study are provided below.
# The experiments to test DBTS and ACEA100108 acute toxicity were performed in mice. The test mice were randomly divided into six groups (five dosing groups and one control group). Each group contained 20 Kunming strain mice, and among them, 50% were male and 50% were female. After administration of a single dose of DBTS or ACEA100108 via intravenous injection (i.v.), the acute response to DBTS or ACEA100108 compound, and the death of the treated mice during the first two weeks were monitored and recorded. The LD50 value was calculated using the Bliss method.
# Materials and Method. The test chemical compound were DBTS and ACEA100108, which were dissolved into hydrogenated castor oil in the pre-warmed water bath and made as a 20 mg/ml solution. The solution was further diluted to desired experiment concentrations with the normal saline. The administration volume was 0.5 ml i.v. per mouse and the injection speed was 0.5 ml/0.5 min.
# The experimental mice were Kunming strain, provided by the Experimental Animal Department, Shanghai Pharmaceutical Industry Institute. The certificate number of the facility was Animal Facility Certification Number 107. The average weight of the mice was 18-20 gram. Each test group contained 20 Kunming strain mice, and among them, 10 mice were male and 10 mice were female. […] The mice in the control group were only given the same volume of the solvent, which were diluted hydrogenated castor oil. All the testing mice were given a single intravenous injection of DBTS, ACEA100108, or the solvent that served as the control at the injection speed of 0.5 ml/0.5 min. The acute response to DBTS, ACEA100108 or the solvent immediately after the administration, as well as weight change, and the death within the first two weeks of the administration were monitored and recorded. The intravenous injection LD50 values in mice were calculated using the Bliss method.
# [1] = 50% male, 50% female, 163.8 mg/kg, 20 animals
# [2] = 50% male, 50% female, 204.8 mg/kg, 20 animals
# [3] = 50% male, 50% female, 256 mg/kg, 20 animals
# [4] = 50% male, 50% female, 320 mg/kg, 20 animals
# [5] = 50% male, 50% female, 400 mg/kg, 20 animals
# [6] = 50% male, 50% female, 500 mg/kg, 20 animals
# [7] = Female, 163.8 mg/kg, 10 animals
# [8] = Female, 204.8 mg/kg, 10 animals
compound,measurement,setting,value
"Fc1ccc(CSSSCc2ccc(F)cc2)cc1 [ACEA100108, Di(p-fluorobenzyl)trisulfide]",Dead animals on day 1 after the single intravenous injection,[1],0
same,Dead animals on day 2 after the single intravenous injection,[1],0
same,Dead animals on day 3 after the single intravenous injection,[1],0
same,Dead animals on day 4 after the single intravenous injection,[1],0
same,Dead animals on day 5 after the single intravenous injection,[1],0
same,Dead animals on day 6 after the single intravenous injection,[1],0
same,Dead animals on day 7 after the single intravenous injection,[1],0
same,Dead animals on day 8 after the single intravenous injection,[1],0
same,Dead animals on day 9 after the single intravenous injection,[1],0
same,Dead animals on days 10-14 after the single intravenous injection,[1],0 - - - 0
same,Percentage of dead animals,[1],0%
same,Dead animals on day 1 after the single intravenous injection,[2],0
same,Dead animals on day 2 after the single intravenous injection,[2],0
same,Dead animals on day 3 after the single intravenous injection,[2],1
same,Dead animals on day 4 after the single intravenous injection,[2],0
same,Dead animals on day 5 after the single intravenous injection,[2],0
same,Dead animals on day 6 after the single intravenous injection,[2],0
same,Dead animals on day 7 after the single intravenous injection,[2],0
same,Dead animals on day 8 after the single intravenous injection,[2],0
same,Dead animals on day 9 after the single intravenous injection,[2],0
same,Dead animals on days 10-14 after the single intravenous injection,[2],0 - - - 0
same,Percentage of dead animals,[2],5%
same,Dead animals on day 1 after the single intravenous injection,[3],0
same,Dead animals on day 2 after the single intravenous injection,[3],4
same,Dead animals on day 3 after the single intravenous injection,[3],0
same,Dead animals on day 4 after the single intravenous injection,[3],2
same,Dead animals on day 5 after the single intravenous injection,[3],0
same,Dead animals on day 6 after the single intravenous injection,[3],0
same,Dead animals on day 7 after the single intravenous injection,[3],0
same,Dead animals on day 8 after the single intravenous injection,[3],0
same,Dead animals on day 9 after the single intravenous injection,[3],0
same,Dead animals on days 10-14 after the single intravenous injection,[3],0 - - - 0
same,Percentage of dead animals,[3],30%
same,Dead animals on day 2 after the single intravenous injection,[4],2
same,Dead animals on day 3 after the single intravenous injection,[4],5
same,Dead animals on day 4 after the single intravenous injection,[4],2
same,Dead animals on day 5 after the single intravenous injection,[4],0
same,Dead animals on day 6 after the single intravenous injection,[4],0
same,Dead animals on day 7 after the single intravenous injection,[4],0
same,Dead animals on day 8 after the single intravenous injection,[4],0
same,Dead animals on day 9 after the single intravenous injection,[4],0
same,Dead animals on days 10-14 after the single intravenous injection,[4],0 - - - 0
same,Percentage of dead animals,[4],45%
same,Dead animals on day 2 after the single intravenous injection,[5],8
same,Dead animals on day 3 after the single intravenous injection,[5],5
same,Dead animals on day 4 after the single intravenous injection,[5],0
same,Dead animals on day 5 after the single intravenous injection,[5],2
same,Dead animals on day 6 after the single intravenous injection,[5],0
same,Dead animals on day 7 after the single intravenous injection,[5],0
same,Dead animals on day 8 after the single intravenous injection,[5],0
same,Dead animals on day 9 after the single intravenous injection,[5],0
same,Dead animals on days 10-14 after the single intravenous injection,[5],0 - - - 0
same,Percentage of dead animals,[5],75%
same,Dead animals on day 1 after the single intravenous injection,[6],20
same,Dead animals on day 2 after the single intravenous injection,[6],0
same,Dead animals on day 3 after the single intravenous injection,[6],0
same,Dead animals on day 4 after the single intravenous injection,[6],0
same,Dead animals on day 5 after the single intravenous injection,[6],0
same,Dead animals on day 6 after the single intravenous injection,[6],0
same,Dead animals on day 7 after the single intravenous injection,[6],0
same,Dead animals on day 8 after the single intravenous injection,[6],0
same,Dead animals on day 9 after the single intravenous injection,[6],0
same,Dead animals on days 10-14 after the single intravenous injection,[6],0 - - - 0
same,Percentage of dead animals,[6],100%
same,Dead animals on day 1 after the single intravenous injection,[7],0
same,Dead animals on day 2 after the single intravenous injection,[7],0
same,Dead animals on day 3 after the single intravenous injection,[7],0
same,Dead animals on day 4 after the single intravenous injection,[7],0
same,Dead animals on day 5 after the single intravenous injection,[7],0
same,Dead animals on day 6 after the single intravenous injection,[7],0
same,Dead animals on day 7 after the single intravenous injection,[7],0
same,Dead animals on day 8 after the single intravenous injection,[7],0
same,Dead animals on day 9 after the single intravenous injection,[7],0
same,Dead animals on days 10-14 after the single intravenous injection,[7],0 - - - 0
same,Percentage of dead animals,[7],0%
same,"Average animal weight, End","Female, 163.8 mg/kg, Beginning 19.6",24.2
same,Dead animals on day 1 after the single intravenous injection,[8],0
same,Dead animals on day 2 after the single intravenous injection,[8],0
same,Dead animals on day 3 after the single intravenous injection,[8],0
same,Dead animals on day 4 after the single intravenous injection,[8],0
same,Dead animals on day 5 after the single intravenous injection,[8],0
same,Dead animals on day 6 after the single intravenous injection,[8],0
same,Dead animals on day 7 after the single intravenous injection,[8],0
same,Dead animals on day 8 after the single intravenous injection,[8],0
same,Dead animals on day 9 after the single intravenous injection,[8],0
same,Dead animals on days 10-14 after the single intravenous injection,[8],0 - - - 0
same,Percentage of dead animals,[8],0%
same,"Average animal weight, End","Female, 204.8 mg/kg, Beginning 20.5",24.3
same,Dead animals on day 1 after the single intravenous injection,"Female, 256 mg/kg, 10 animals",0
same,Dead animals on day 2 after the single intravenous injection,"Female, 256 mg/kg, 10 animals",2
same,Dead animals on day 3 after the single intravenous injection,"Female, 256 mg/kg, 10 animals",0
same,Dead animals on day 4 after the single intravenous injection,"Female, 256 mg/kg, 10 animals",1
same,Dead animals on day 5 after the single intravenous injection,"Female, 256 mg/kg, 10 animals",0
same,Dead animals on day 6 after the single intravenous injection,"Female, 256 mg/kg, 10 animals",0
same,Dead animals on day 7 after the single intravenous injection,"Female, 256 mg/kg, 10 animals",0
same,Dead animals on day 8 after the single intravenous injection,"Female, 256 mg/kg, 10 animals",0
same,Dead animals on day 9 after the single intravenous injection,"Female, 256 mg/kg, 10 animals",0
same,Dead animals on days 10-14 after the single intravenous injection,"Female, 256 mg/kg, 10 animals",0 - - - 0
same,Percentage of dead animals,"Female, 256 mg/kg, 10 animals",30%
same,"Average animal weight, End","Female, 256 mg/kg, Beginning 20.1",24.6
same,Dead animals on day 1 after the single intravenous injection,"Female, 320 mg/kg, 10 animals",2
same,Dead animals on day 2 after the single intravenous injection,"Female, 320 mg/kg, 10 animals",2
same,Dead animals on day 3 after the single intravenous injection,"Female, 320 mg/kg, 10 animals",1
same,Dead animals on day 4 after the single intravenous injection,"Female, 320 mg/kg, 10 animals",0
same,Dead animals on day 5 after the single intravenous injection,"Female, 320 mg/kg, 10 animals",0
same,Dead animals on day 6 after the single intravenous injection,"Female, 320 mg/kg, 10 animals",0
same,Dead animals on day 7 after the single intravenous injection,"Female, 320 mg/kg, 10 animals",0
